Key:
velvetleaf [1] = experiment: Test Example 4: herbicidal effect by soil treatment (Table 19, symbol M); assay type: in vivo, velvetleaf (Abutilon theophrasti); details: amount of applied herbicide 320 g/ha
In short: (§1)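 Herbicidal effect was rated 3 weeks after treatment, using the scoring criteria of an earlier test. The compound, formulated as an emulsion and diluted in water to a set herbicide amount, had been sprayed uniformly on soil over freshly sown seeds. Growth took place in a greenhouse at 25° C. to 30° C.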

blackgrass [2] = experiment: Test Example 4: herbicidal effect by soil treatment (Table 19, symbol J); assay type: in vivo, blackgrass (Alopecurus myosuroides); details: amount of applied herbicide 320 g/ha
In short: as §1

blackgrass [3] = experiment: Test Example 5: herbicidal effect by foliage application, plastic box (Table 20, symbol J); assay type: in vivo, blackgrass (Alopecurus myosuroides); details: foliage application after 14-day growth, evaluated three weeks after application
In short: (§2)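 Foliar spray test: emulsion formulation diluted in water to a set application rate, sprayed onto 14-day-old plants raised in diluvial soil at 25° C to 30° C under glass. Both herbicidal effect and crop effect rated visually three weeks later.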

wild oat [4] = experiment: Test Example 4: herbicidal effect by soil treatment (Table 19, symbol I); assay type: in vivo, wild oat (Avena fatua); details: amount of applied herbicide 320 g/ha
In short: as §1

lambsquarters [5] = experiment: Test Example 5: herbicidal effect by foliage application, plastic box (Table 20, symbol O); assay type: in vivo, lambsquarters (Chenopodium album); details: foliage application after 14-day growth, evaluated three weeks after application
In short: as §2

persian speedwell [6] = experiment: Test Example 5: herbicidal effect by foliage application, plastic box (Table 20, symbol R); assay type: in vivo, Persian speedwell (Veronica persica); details: foliage application after 14-day growth, evaluated three weeks after application
In short: as §2

southern crabgrass [7] = experiment: Test Example 5: herbicidal effect by foliage application, plastic box (Table 20, symbol F); assay type: in vivo, southern crabgrass (Digitaria ciliaris); details: foliage application after 14-day growth, evaluated three weeks after application
In short: as §2

windgrass = experiment: Test Example 5: herbicidal effect by foliage application, plastic box (Table 20, symbol L); assay type: in vivo, windgrass (Apera spica-venti); details: foliage application after 14-day growth, evaluated three weeks after application
In short: as §2

redroot pigweed [8] = experiment: Test Example 5: herbicidal effect by foliage application, plastic box (Table 20, symbol N); assay type: in vivo, redroot pigweed (Amaranthus retroflexus); details: foliage application after 14-day growth, evaluated three weeks after application
In short: as §2

rice flat sedge = experiment: Test Example 3: herbicidal effect by foliage application, Wagner pot (Table 18, symbol E); assay type: in vivo, rice flat sedge (Cyperus iria); details: 320 g/ha
In short: (§3)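 Plants were sown in alluvial soil held under 0.1–0.5 cm standing water and grown 14 days in a greenhouse at 25–30 °C. An emulsifiable formulation, water-diluted to the set dose, was then sprayed onto the foliage, and effects were scored three weeks later using previously defined criteria.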

barnyard grass [9] = experiment: Test Example 5: herbicidal effect by foliage application, plastic box (Table 20, symbol H); assay type: in vivo, barnyard grass (Echinochloa crus-galli); details: foliage application after 14-day growth, evaluated three weeks after application
In short: as §2

green foxtail [10] = experiment: Test Example 5: herbicidal effect by foliage application, plastic box (Table 20, symbol G); assay type: in vivo, green foxtail (Setaria viridis); details: foliage application after 14-day growth, evaluated three weeks after application
In short: as §2

wild oat [11] = experiment: Test Example 5: herbicidal effect by foliage application, plastic box (Table 20, symbol I); assay type: in vivo, wild oat (Avena fatua); details: foliage application after 14-day growth, evaluated three weeks after application
In short: as §2

Italian ryegrass [12] = experiment: Test Example 4: herbicidal effect by soil treatment (Table 19, symbol K); assay type: in vivo, Italian ryegrass (Lolium multiflorum); details: amount of applied herbicide 320 g/ha
In short: as §1

lambsquarters [13] = experiment: Test Example 4: herbicidal effect by soil treatment (Table 19, symbol O); assay type: in vivo, lambsquarters (Chenopodium album); details: amount of applied herbicide 320 g/ha
In short: as §1

southern crabgrass [14] = experiment: Test Example 4: herbicidal effect by soil treatment (Table 19, symbol F); assay type: in vivo, southern crabgrass (Digitaria ciliaris); details: amount of applied herbicide 320 g/ha
In short: as §1

green foxtail [15] = experiment: Test Example 4: herbicidal effect by soil treatment (Table 19, symbol G); assay type: in vivo, green foxtail (Setaria viridis); details: amount of applied herbicide 320 g/ha
In short: as §1

velvetleaf [16] = experiment: Test Example 5: herbicidal effect by foliage application, plastic box (Table 20, symbol M); assay type: in vivo, velvetleaf (Abutilon theophrasti); details: foliage application after 14-day growth, evaluated three weeks after application
In short: as §2

Italian ryegrass [17] = experiment: Test Example 5: herbicidal effect by foliage application, plastic box (Table 20, symbol K); assay type: in vivo, Italian ryegrass (Lolium multiflorum); details: foliage application after 14-day growth, evaluated three weeks after application
In short: as §2

Chinese sprangletop = experiment: Test Example 3: herbicidal effect by foliage application, Wagner pot (Table 18, symbol D); assay type: in vivo, chinese sprangletop (Leptochloa chinensis); details: 320 g/ha
In short: as §3

barnyard grass [18] = experiment: Test Example 3: herbicidal effect by foliage application, Wagner pot (Table 18, symbol H); assay type: in vivo, barnyard grass (Echinochloa crus-galli); details: 320 g/ha
In short: as §3

persian speedwell [19] = experiment: Test Example 4: herbicidal effect by soil treatment (Table 19, symbol R); assay type: in vivo, Persian speedwell (Veronica persica); details: amount of applied herbicide 320 g/ha
Text: [Test Example 4] Herbicidal Effect Test by Soil Treatment
Sterilized diluvial soil was placed in a plastic box having a length of 21 cm, a width of 13 cm, and a depth of 7 cm. The seeds of each of southern crabgrass, green foxtail, barnyard grass, wild oat, blackgrass, Italian ryegrass, windgrass, velvetleaf, redroot pigweed, lambsquarters, chickweed, false cleavers, persian speedwell, corn, soybean, rice, wheat, beet, and rapeseed were sowed in a spot-like manner and covered with the soil having a thickness of about 1.5 cm. Subsequently, the emulsion agent of the compound of the present invention prepared according to Formulation Example 2 was diluted with water so as to achieve a predetermined herbicide amount, and the diluted emulsion agent was uniformly applied to the surface of the soil with a small-sized spray. The plastic box was placed in a greenhouse at 25° C. to 30° C. for growth of the plants. Three weeks after the herbicide application, the effect of the herbicide on each plant was evaluated according to the criteria of Test Example 1.

chickweed [20] = experiment: Test Example 5: herbicidal effect by foliage application, plastic box (Table 20, symbol P); assay type: in vivo, common chickweed (Stellaria media); details: foliage application after 14-day growth, evaluated three weeks after application
In short: as §2

chickweed [21] = experiment: Test Example 4: herbicidal effect by soil treatment (Table 19, symbol P); assay type: in vivo, common chickweed (Stellaria media); details: amount of applied herbicide 320 g/ha
In short: as §1

redroot pigweed [22] = experiment: Test Example 4: herbicidal effect by soil treatment (Table 19, symbol N); assay type: in vivo, redroot pigweed (Amaranthus retroflexus); details: amount of applied herbicide 320 g/ha
In short: as §1

barnyard grass [23] = experiment: Test Example 4: herbicidal effect by soil treatment (Table 19, symbol H); assay type: in vivo, barnyard grass (Echinochloa crus-galli); details: amount of applied herbicide 320 g/ha
In short: as §1

[24] = amount of applied herbicide 320 g/ha

## Cc1nn(C)c(=O)c(-c2c(-c3ccc(C(F)(F)F)cc3)sc3c(F)cccc23)c1O [4-044]
Velvetleaf [1]
  Herbicidal effect by soil treatment, M: velvetleaf: 0 (Herbicidal rate of 5% or less (almost no effect))
Blackgrass [2]
  Herbicidal effect by soil treatment, J: blackgrass: 0 (Herbicidal rate of 5% or less (almost no effect))
Blackgrass [3]; 320 g/ha
  herbicidal effect on J: blackgrass (evaluation grade 0-5): 0 (Herbicidal rate of 5% or less (almost no effect))
Wild oat [4]
  Herbicidal effect by soil treatment, I: wild oat: 0 (Herbicidal rate of 5% or less (almost no effect))
Lambsquarters [5]; 320 g/ha
  herbicidal effect on O: lambsquarters (evaluation grade 0-5): 3 (Herbicidal rate of 40% or more and less than 70%)
Persian speedwell [6]; 320 g/ha
  herbicidal effect on R: persian speedwell (evaluation grade 0-5): 5 (Herbicidal rate of 90% or more (almost completely withered))
Southern crabgrass [7]; 320 g/ha
  herbicidal effect on F: southern crabgrass (evaluation grade 0-5): 0 (Herbicidal rate of 5% or less (almost no effect))
windgrass; 320 g/ha
  herbicidal effect on L: windgrass (evaluation grade 0-5): 5 (Herbicidal rate of 90% or more (almost completely withered))
Redroot pigweed [8]; 320 g/ha
  herbicidal effect on N: redroot pigweed (evaluation grade 0-5): 4 (Herbicidal rate of 70% or more and less than 90%)
Rice flat sedge
  herbicidal effect on rice flat sedge (E): 5 (Herbicidal rate of 90% or more (almost completely withered))
Barnyard grass [9]; 320 g/ha
  herbicidal effect on H: barnyard grass (evaluation grade 0-5): 2 (Herbicidal rate of 20% or more and less than 40%)
Green foxtail [10]; 320 g/ha
  herbicidal effect on G: green foxtail (evaluation grade 0-5): 1 (Herbicidal rate of 5% or more and less than 20%)
Wild oat [11]; 320 g/ha
  herbicidal effect on I: wild oat (evaluation grade 0-5): 0 (Herbicidal rate of 5% or less (almost no effect))
Italian ryegrass [12]
  Herbicidal effect by soil treatment, K: Italian ryegrass: 0 (Herbicidal rate of 5% or less (almost no effect))
Lambsquarters [13]
  Herbicidal effect by soil treatment, O: lambsquarters: 0 (Herbicidal rate of 5% or less (almost no effect))
Southern crabgrass [14]
  Herbicidal effect by soil treatment, F: southern crabgrass: 0 (Herbicidal rate of 5% or less (almost no effect))
Green foxtail [15]
  Herbicidal effect by soil treatment, G: green foxtail: 0 (Herbicidal rate of 5% or less (almost no effect))
Velvetleaf [16]; 320 g/ha
  herbicidal effect on M: velvetleaf (evaluation grade 0-5): 3 (Herbicidal rate of 40% or more and less than 70%)
Italian ryegrass [17]; 320 g/ha
  herbicidal effect on K: Italian ryegrass (evaluation grade 0-5): 4 (Herbicidal rate of 70% or more and less than 90%)
Chinese sprangletop
  herbicidal effect on Chinese sprangletop (D): 5 (Herbicidal rate of 90% or more (almost completely withered))
Barnyard grass [18]
  herbicidal effect on barnyard grass (H): 5 (Herbicidal rate of 90% or more (almost completely withered))
Persian speedwell [19]
  Herbicidal effect by soil treatment, R: persian speedwell: 3 (Herbicidal rate of 40% or more and less than 70%)
Chickweed [20]; 320 g/ha
  herbicidal effect on P: chickweed (evaluation grade 0-5): 5 (Herbicidal rate of 90% or more (almost completely withered))
Chickweed [21]
  Herbicidal effect by soil treatment, P: chickweed: 1 (Herbicidal rate of 5% or more and less than 20%)
Redroot pigweed [22]
  Herbicidal effect by soil treatment, N: redroot pigweed: 0 (Herbicidal rate of 5% or less (almost no effect))
Barnyard grass [23]
  Herbicidal effect by soil treatment, H: barnyard grass: 0 (Herbicidal rate of 5% or less (almost no effect))

## COc1cc(F)ccc1-c1sc2cc(F)c(F)cc2c1-c1c(O)c(C)nn(C)c1=O [5-029]
Velvetleaf [1]
  M: velvetleaf, herbicidal effect grade: 3 (Herbicidal rate of 40% or more and less than 70%)
Blackgrass [2]
  J: blackgrass, herbicidal effect grade: 4 (Herbicidal rate of 70% or more and less than 90%)
Blackgrass [3]; [24]
  Herbicidal effect by foliage application, J: blackgrass: 4 (Herbicidal rate of 70% or more and less than 90%)
Wild oat [4]
  I: wild oat, herbicidal effect grade: 2 (Herbicidal rate of 20% or more and less than 40%)
Lambsquarters [5]; [24]
  Herbicidal effect by foliage application, O: lambsquarters: 5 (Herbicidal rate of 90% or more (almost completely withered))
Persian speedwell [6]; [24]
  Herbicidal effect by foliage application, R: persian speedwell: 5 (Herbicidal rate of 90% or more (almost completely withered))
Southern crabgrass [7]; [24]
  Herbicidal effect by foliage application, F: southern crabgrass: 3 (Herbicidal rate of 40% or more and less than 70%)
windgrass; [24]
  Herbicidal effect by foliage application, L: windgrass: 5 (Herbicidal rate of 90% or more (almost completely withered))
Redroot pigweed [8]; [24]
  Herbicidal effect by foliage application, N: redroot pigweed: 5 (Herbicidal rate of 90% or more (almost completely withered))
Rice flat sedge
  herbicidal effect on rice flat sedge (E): 5 (Herbicidal rate of 90% or more (almost completely withered))
Barnyard grass [9]; [24]
  Herbicidal effect by foliage application, H: barnyard grass: 5 (Herbicidal rate of 90% or more (almost completely withered))
Green foxtail [10]; [24]
  Herbicidal effect by foliage application, G: green foxtail: 5 (Herbicidal rate of 90% or more (almost completely withered))
Wild oat [11]; [24]
  Herbicidal effect by foliage application, I: wild oat: 4 (Herbicidal rate of 70% or more and less than 90%)
Italian ryegrass [12]
  K: Italian ryegrass, herbicidal effect grade: 1 (Herbicidal rate of 5% or more and less than 20%)
Lambsquarters [13]
  O: lambsquarters, herbicidal effect grade: 5 (Herbicidal rate of 90% or more (almost completely withered))
Southern crabgrass [14]
  F: southern crabgrass, herbicidal effect grade: 0 (Herbicidal rate of 5% or less (almost no effect))
Green foxtail [15]
  G: green foxtail, herbicidal effect grade: 3 (Herbicidal rate of 40% or more and less than 70%)
Velvetleaf [16]; [24]
  Herbicidal effect by foliage application, M: velvetleaf: 5 (Herbicidal rate of 90% or more (almost completely withered))
Italian ryegrass [17]; [24]
  Herbicidal effect by foliage application, K: Italian ryegrass: 4 (Herbicidal rate of 70% or more and less than 90%)
Chinese sprangletop
  herbicidal effect on Chinese sprangletop (D): 4 (Herbicidal rate of 70% or more and less than 90%)
Barnyard grass [18]
  herbicidal effect on barnyard grass (H): 4 (Herbicidal rate of 70% or more and less than 90%)
Persian speedwell [19]
  R: persian speedwell, herbicidal effect grade: 3 (Herbicidal rate of 40% or more and less than 70%)
Chickweed [20]; [24]
  Herbicidal effect by foliage application, P: chickweed: 5 (Herbicidal rate of 90% or more (almost completely withered))
Chickweed [21]
  P: chickweed, herbicidal effect grade: 3 (Herbicidal rate of 40% or more and less than 70%)
Redroot pigweed [22]
  N: redroot pigweed, herbicidal effect grade: 5 (Herbicidal rate of 90% or more (almost completely withered))
Barnyard grass [23]
  H: barnyard grass, herbicidal effect grade: 0 (Herbicidal rate of 5% or less (almost no effect))

Source: patent publication US20230085307A1, “PYRIDAZINONE COMPOUND AND HERBICIDE” (NISSAN CHEMICAL CORPORATION, priority 2019, published 2023)
